Results published in patent US10526662B2, “FALZ for use as a target for therapies to treat cancer” (Sutter Bay Hospitals, priority 2013, dated 2020).

Legend:
1205-Lu melanoma cells = assay: BRAF inhibitor sensitivity of 1205-Lu cells with modulated BPTF expression; type: cell-based, human; conditions: for reduction in sensitivity to drug on overexpression of BPTF: 1205-Lu overexpressing BPTF; for increase in sensitivity of BPTF shRNA-expressing cells to drug: 1205-Lu, vs control shRNA-expressing cells
Method: (§1) Cell viability and colony formation were performed and cell cycle analysis was performed as described using common techniques in the art. Cells were treated with varying concentrations of vemurafenib for 72 hrs or dabrafenib (Chemitek, Indianapolis, Ind.) for 48 hrs or as indicated. DMSO was used as a vehicle.

BPTF [1] = assay: qRT-PCR of BPTF expression in B16-F10 cells; type: cell-based; conditions: B16-F10 murine melanoma cells, mRNA level
Method: (§2) mRNAs were assayed using the TaqMan Gene Expression Assays in accordance with the manufacturer's instructions (Applied Biosystems). TaqMan probes for BPTF, HPRT1, CCND2, BCL-XL, TWIST1, RAB14, CEBPB, CHI3L1, DLL3, OLIG2, PDGFRA and BCL2 were purchased from Applied Biosystems (Foster City, Calif.).
(§3) Selected shRNAs cloned into the pLKO1-vector were co-transfected into 293T cells along with expression vectors containing the GAG/POL, REV and VSVG genes. Lentiviruses were harvested 48 hrs after transfection. Sub-confluent human melanoma or glioblastoma cells were infected with each harvested lentiviruses in the presence of 8 μg/ml of polybrene, and were selected in 1 μg/ml of puromycin at 48 hrs post-infection in their respective culture medium. B16-F10 cells were transfected with BPTF shRNA1, BPTF shRNA 2 or Neg shRNA vectors and stable transformants were selected with 2 ug/ml of puromycin.

[2] = test system: B16-F10 murine melanoma cells; assay: cDNA microarray gene expression profiling of B16-F10 clones; type: cell-based
Text: Total RNA was extracted from cells using the RNeasy kit (Qiagen, Valencia, Calif.). Ten micrograms of total RNA, along with universal mouse reference RNA (Stratagene, Santa Clara, Calif.), was converted to aminoallyl-modified cDNA by oligo(dT)-primed polymerization using SuperScript II reverse transcriptase (Invitrogen), coupled to N-hydroxysuccinimidyl esters of Cy3 or Cy5 (Amersham Pharmacia, Pittsburgh, Pa.), and then hybridized to a microarray slide as described (Haqq et al., 2005). After linear normalization, log (base 2) transformation, and supervised hierarchical clustering, the resulting cluster data table was imported into the significance analysis of microarrays software package. Delta was chosen to limit the output gene list so that 5% predicted false positives would be included.

BPTF [3] = assay: qRT-PCR of BPTF expression in 1205-Lu cells; type: cell-based; conditions: 1205-Lu human melanoma cells (mutant BRAF)
Method: as §2, §3

[4] = test system: 1205-Lu human melanoma cells; assay: Cell cycle analysis, 1205-Lu; type: cell-based; conditions: vs control shRNA vector
Method: as §1

[5] = test system: 1205-Lu human melanoma cells; assay: Cell survival assay, 1205-Lu; type: cell-based
Method: as §1

[6] = test system: 1205-Lu human melanoma cells; assay: Colony formation assay, 1205-Lu; type: cell-based; conditions: p<0.02
Method: as §1

[7] = test system: 1205-Lu human melanoma cells; assay: Apoptosis, 1205-Lu; type: cell-based; conditions: p<0.02
[8] = test system: 1205-Lu human melanoma cells; assay: Matrigel invasion assay, 1205-Lu; type: cell-based
Method: (§4) A Matrigel assay for tumor invasion was performed using routine techniques. For B16-F10, 1205-Lu and C8161.9 cells, insert chambers were coated with 15 μl matrigel at 6 mg/ml protein, 17 μl and 7 mg/ml for C8161.9 cells and 15 μl and 5 mg/ml for 1205-Lu and U251 cell lines.

[9] = test system: 1205-Lu human melanoma cells; assay: Subcutaneous tumor growth of 1205-Lu cells in nude mice; type: in vivo; conditions: 1205-Lu in nude mice, vs control shRNA-expressing cells
Method: (§5) All animal care was in accordance with institutional guidelines and a protocol that was approved by the University of California San Francisco Committee on Animal Research and California Pacific Medical Center Research Institute. Groups of 45-day-old female C57B1/6 (Charles River) were inoculated by tail vein injection with 30,000 B16-F10 BPTF stables cells. 1×10^6 1205-Lu cells were injected by tail vain in nude mice. For subcutaneous injection 1×10^6 1205-Lu, B16-F10, or C8161.9 cells and 2×10^6 U251 cells were injected, respectively.

[10] = test system: 1205-Lu human melanoma cells; assay: Lung metastatic tumor burden after intravenous inoculation of 1205-Lu cells; type: in vivo; conditions: nude mice
Method: as §5

BPTF [11] = assay: qRT-PCR of BPTF expression in U251 cells; type: cell-based; conditions: U251 human GBM cells
Method: as §2, §3

U251 human GBM cells [12] = assay: Cell survival and colony formation, U251; type: cell-based
Method: as §1

U251 human GBM cells [13] = assay: Cell cycle analysis, U251; type: cell-based; conditions: U251, p<0.01
Method: as §1

U251 human GBM cells [14] = assay: Apoptosis, U251; type: cell-based; conditions: U251, p<0.02
U251 human GBM cells [15] = assay: Matrigel invasion assay, U251; type: cell-based
Method: as §4

BCL2, BCL-XL and CCND2 = assay: Expression of BCL2, BCL-XL and CCND2 in GBM cells; type: cell-based, human; conditions: GBM cells (U251)
Method: as §2
(§6) Western blot analysis was performed. Target proteins were detected by using specific antibodies against BPTF (Bethyl Laboratories Montgomery, TX), BCL2, and GAPDH (Santa Cruz Biotechnology, Santa Cruz, Calif.), and ERK1/2, pERK1/2, CCND2, BCL-XL, p90RSK (Cell Signaling Technology, Danvers, Mass.).

[16] = test system: phosphorylated ERK1/2 and p90RSK; assay: Western blot of phosphorylated ERK1/2 and p90RSK in GBM cells; type: cell-based, human; conditions: GBM cells (U251)
Method: as §6

U251 human GBM cells [17] = assay: Subcutaneous U251 tumor growth in nude mice; type: in vivo; conditions: subcutaneous inoculation
Method: as §5

[18] = B16-F10 clones stably expressing shRNA vs control vector

`CC(C)(C)c1nc(-c2cccc(NS(=O)(=O)c3c(F)cccc3F)c2F)c(-c2ccnc(N)n2)s1` [dabrafenib] was tested, and the “reduction in sensitivity to drug on overexpression of BPTF” value (1205-Lu melanoma cells) was 3.4 fold and the “increase in sensitivity of BPTF shRNA-expressing cells to drug” value (1205-Lu melanoma cells) was 2.8 fold.
For `CCCS(=O)(=O)Nc1ccc(F)c(C(=O)c2c[nH]c3ncc(-c4ccc(Cl)cc4)cc23)c1F` [vemurafenib], the “reduction in sensitivity to drug on overexpression of BPTF” value (1205-Lu melanoma cells) was 2.5 fold and the “increase in sensitivity of BPTF shRNA-expressing cells to drug” value (1205-Lu melanoma cells) was 3.2 fold.
“BPTF shRNA 1: shRNA targeting BPTF, TGGCTGTGATCGGTGTCAGAATTGGTACC (SEQ ID NO:3); used for the murine cell line (listed as DNA, chemistry not fully specified)” was tested, and the “BPTF expression (qRT-PCR)” value (BPTF [1]) was “suppressed significantly”.
With “BPTF shRNA 2: shRNA targeting BPTF, GGTGATGAAGCATAATGCTGTA ATAGAAC (SEQ ID NO:4); used for the murine cell line (GGTGATGAAGCATAATGCTGTAATAGAAC; listed as DNA, chemistry not fully specified)” the “BPTF expression (qRT-PCR)” value (BPTF [1]) was “suppressed significantly”, the “Bcl-xl and Ccnd2 expression” value ([2]; B16-F10, microarray, confirmed by qRT-PCR and western blot) was “downregulated” and the “number of genes overexpressed” value [2, 18] was 1008 genes. The “number of genes with downregulated expression” value [2, 18] was 27 genes.
In the case of “BPTF shRNA 3: shRNA targeting human BPTF, ATTTAGATTCATCATAAGGCG (SEQ ID NO:5) (listed as DNA, chemistry not fully specified)”, the BPTF expression (BPTF [3]) was “significant suppression”, the cell cycle distribution [4] was “G1/G0 cell cycle arrest and a significant reduction in S-phase” and the cell survival [5] was “suppression”. The colony formation ability [6] was “suppression”, the apoptotic index [7] was “significantly increased” and the “invasiveness into Matrigel” value [8] was “significant decrease”. The “subcutaneous tumor cell growth” value [9] was “considerably suppressed”, the “reduction in the metastatic tumor burden in the lungs” value [10] was 66% and the BPTF expression (BPTF [11]) was “Stable suppression”. For the same compound, the “proliferation (cell survival and colony formation)” value (U251 human GBM cells [12]) was “significantly reduced”, the cell cycle distribution (U251 human GBM cells [13]) was “significant G1/G0 cell cycle arrest” and the apoptosis (U251 human GBM cells [14]) was “induction”. For the same compound, the invasiveness (U251 human GBM cells [15]) was “significantly reduced”, the “expression of BCL2, BCL-XL and CCND2” value (BCL2, BCL-XL and CCND2) was “suppression” and the “phosphorylated ERK1/2 and p90RSK” value [16] was “significant suppression”. For the same compound, the “U251 tumor cell growth” value (U251 human GBM cells [17]) was “highly significant reduction”.
